In PMC3549755, “A comparison of the ability of rilpivirine (TMC278) and selected analogues to inhibit clinically relevant HIV-1 reverse transcriptase mutants” (Retrovirology, 2012):

Key:
[1] = tested on: viral vectors that replicate using WT HIV reverse transcriptase; assay: single-round infectivity assay, luciferase reporter, vector with WT RT; format: cell-based, HIV-1; details: Human immunodeficiency virus 1, broader panel table, SD in parentheses; read-out: EC50 WT (Table S1)
Source text: (§1) We examined the effects of rilpivirine and the analogues on HIV-1 replication using a previously described assay and report the concentrations at which luciferase reporter activity was reduced by half relative to uninhibited controls (EC50) with standard deviations in parentheses. In the assay, viral vectors that replicate using WT HIV reverse transcriptase or one of several mutants (L100I, K103N, V106A, E138K, Y181C, Y188L, H221Y and the double mutant K103N/Y181C) were used to infect cells in a single round assay. These mutants were chosen either because they are known NNRTI resistance mutations (L100I, K103N, Y181C, and the K103N/Y181C double mutant), they were selected in patients in rilpivirine clinical trials (E138K and H221Y), or they are positioned to make significant Van der Waals contacts with rilpivirine (V106A and Y188L). All compounds were initially screened against a panel that included at least one RT mutant from all three groups (WT, K103N, E138K, Y181C and Y188L). The cytotoxicity of the compounds was also determined to establish the therapeutic index of each of the compounds.
(§2) Procedures for virion production and cell-based assay have been reported. Briefly, all cell cultures were maintained in Dulbecco’s modified Eagle’s medium (Invitrogen, Carlsbad, CA) with 5% (v/v) fetal bovine serum, 5% newborn calf serum, penicillin (50 units/mL) and streptomycin (50 μg/mL) (Quality Biological, Gaithersburg, MD). […]. Transfected cells were incubated at 37°C for 8 hrs, washed twice with PBS, fresh media was added and the cells were returned to the incubator for 48 hrs. The pNLNgoMIVR^+ΔEnv.LUC plasmid encodes the HIV-1 genome with an Env deletion and either WT HIV-1 RT, or one of the following mutants: L100I, K103N, V106A, E138K, Y181C, Y188L, H221Y, or K103N/Y181C. Supernatants from each plate were clarified by low-speed centrifugation (3,000xg for 20 min), then treated with 200 U DNase I (Roche Applied Science, Mannheim, Germany) at room temperature for 3 hours. Viral supernatants were stored at −20°C until used.
(§3) One day prior to infection, 100 μL of human osteosarcoma (HOS) cells were added to each well of a 96-well plate at a density of 4x10^4 cells/mL. Plates were incubated overnight at 37°C. On the day of infection, 10X drug stocks were prepared by serial dilution in media from an initial 10 mM stock solution in DMSO. Cells in the 96-well plate were pre-treated by the addition of 22 μL of the appropriate drug stock and returned to the incubator for 3 hours. Thawed virus stocks were diluted 1:2 in media, then 100 μL of virus was added to the pre-treated cells, bringing the final drug concentrations to 0.1 nM to 100 nM, with DMSO-treated cells (no drug) serving as a reference. In addition, 12 wells of cells treated with media and no virus served as negative controls. Plates were returned to the incubator for an additional 42 hours, at which time the luciferase activity was determined using Steady-Lite Plus kits (PerkinElmer, Waltham, MA). Background luciferase activity, as measured for the negative controls, was subtracted from the activities measured for each infected well. Drug-free, DMSO-treated wells were normalized to 100% infectivity. Infectivity at each drug concentration was determined as a percentage of these drug-free infections. Drug concentration versus percent infectivity was plotted for each RT-inhibitor combination, and the data were fit to a four-parameter sigmoidal curve using KaleidaGraph 4.0 (Synergy Software, Reading, PA). The inflection point of each curve is reported as the IC50. All values are the mean of triplicate infections.

[2] = tested on: viral vector with K103N mutant HIV-1 RT; assay: single-round infectivity assay, luciferase reporter, K103N RT vector; format: cell-based; details: Human immunodeficiency virus 1; HOS cells, reduction of luciferase reporter activity, SD in parentheses
Source text: as §1, §2, §3

[3] = tested on: viral vector with E138K mutant HIV-1 RT; assay: single-round infectivity assay, luciferase reporter, E138K RT vector; format: cell-based; details: for EC50: Human immunodeficiency virus 1, HOS cells, reduction of luciferase reporter activity, SD in parentheses
Source text: as §1, §2, §3

[4] = tested on: viral vector with Y181C mutant HIV-1 RT; assay: single-round infectivity assay, luciferase reporter, Y181C RT vector; format: cell-based; details: Human immunodeficiency virus 1; HOS cells, reduction of luciferase reporter activity, SD in parentheses
Source text: as §1, §2, §3

[5] = tested on: viral vector with Y188L mutant HIV-1 RT; assay: single-round infectivity assay, luciferase reporter, Y188L RT vector; format: cell-based; details: Human immunodeficiency virus 1; HOS cells, reduction of luciferase reporter activity, SD in parentheses
Source text: as §1, §2, §3

[6] = tested on: viral vector with L100I mutant HIV-1 RT; assay: single-round infectivity assay, luciferase reporter, L100I RT vector; format: cell-based; details: Human immunodeficiency virus 1; broader panel, SD in parentheses
Source text: as §1, §2, §3

[7] = tested on: viral vector with V106A mutant HIV-1 RT; assay: single-round infectivity assay, luciferase reporter, V106A RT vector; format: cell-based; details: Human immunodeficiency virus 1; broader panel, SD in parentheses
Source text: as §1, §2, §3

[8] = tested on: viral vector with H221Y mutant HIV-1 RT; assay: single-round infectivity assay, luciferase reporter, H221Y RT vector; format: cell-based; details: Human immunodeficiency virus 1; broader panel, SD in parentheses
Source text: as §1, §2, §3

[9] = tested on: viral vector with K103N/Y181C double mutant HIV-1 RT; assay: single-round infectivity assay, luciferase reporter, K103N/Y181C RT vector; format: cell-based; details: for EC50: Human immunodeficiency virus 1, broader panel, SD in parentheses; for fold resistance / loss of potency against K103N/Y181C double mutant: relative to WT
Source text: as §1, §2, §3

[10] = cytotoxicity assay (ATP-Lite cell viability); format: cell-based, human; details: human, HOS cells, 48 hours, SD in parentheses
Protocol: (§4) One day prior to treatment, HOS cells were prepared in 96-well plates as described for the infectivity assays, except that 12 wells per plate were treated with cell-free media to serve as negative controls. The following day, serial dilutions of drug stocks were prepared in media from 10 mM stocks in DMSO. Each well received 11 μL of the appropriate drug concentration or DMSO-treated, drug-free media. Final drug concentrations ranged from 0.5 μM to 300 μM. The drug-free wells served as references. Plates were then incubated at 37°C for 48 hours. Cell viability was determined using luciferase reporter ATP-Lite kits (PerkinElmer). As described for the infectivity assays, drug-free reference wells were normalized to 100%, and viabilities at different drug concentrations were determined as a percentage of these references. Data were plotted and analyzed in the same manner as the IC50 data, with the inflection points of the curves reported as CC50.

HOS cells = assay: cytotoxicity assay (ATP-Lite cell viability); format: cell-based, human; details: for Therapeutic Index (T.I.): ratio of CC50/EC50 (WT); for CC50: HOS cells, 48 hours, SD in parentheses
Protocol: as §4

Cc1cc(/C=C/C#N)cc(C)c1Nc1ncc(N)c(Nc2ccc(C#N)cc2)n1 [Analogue 9]
EC50 [1]: 0.7 nM | EC50 [2]: 0.7 nM | EC50 [3]: 2.6 nM | EC50 [4]: 4.6 nM | EC50 [5]: 18 nM | EC50 [6]: 0.5 nM | EC50 [7]: 0.9 nM | EC50 [8]: 2.8 nM | EC50 fold greater than that of 7 against K103N/Y181C [9]: ~ 21 fold | EC50 [9]: 47 nM | fold resistance / loss of potency against K103N/Y181C double mutant [9]: ~ 67 fold | CC50 at 48 h [10]: 19000 nM | Therapeutic Index (T.I.) (HOS cells): 2.7x10^4

Cc1cc(/C=C/C#N)cc(C)c1Nc1nc(Nc2ccc(C#N)cc2)c2nc[nH]c2n1 [Analogue 13]
EC50 [1]: 0.9 nM | EC50 [2]: 0.4 nM | EC50 [3]: 4.2 ± 0.3 nM | loss of potency against E138K ([3]; compared with rilpivirine (1)): four- to fourteen-fold | EC50 [4]: 1.4 nM | EC50 [5]: 2 nM | EC50 [6]: 0.1 nM | EC50 [7]: 0.5 nM | EC50 [8]: 1.3 nM | EC50 [9]: 2.9 nM | CC50 at 48 h [10]: 15000 nM | Therapeutic Index (T.I.) (HOS cells): 1.7x10^4

Cc1cc(/C=C/C#N)cc(C)c1Nc1nc(Nc2ccc3ncsc3c2)c2nc[nH]c2n1 [Analogue 20]
EC50 [1]: 0.2 nM | EC50 [2]: 0.1 nM | EC50 [3]: 0.8 nM | EC50 [4]: 1 nM | EC50 [5]: 19 nM | EC50 [6]: 0.2 nM | EC50 [7]: 2.1 nM | EC50 [8]: 1.1 nM | EC50 [9]: 60 nM | CC50 at 48 h [10]: 2000 nM | Therapeutic Index (T.I.) (HOS cells): 1.0x10^4

Cc1cc(/C=C/C#N)cc(C)c1Nc1nc(Nc2ccc3scnc3c2)c2nc[nH]c2n1 [Analogue 21]
EC50 [1]: 0.1 nM | EC50 [2]: 0.6 nM | EC50 [3]: 1.5 nM | EC50 [4]: 1 nM | EC50 [5]: 4.4 nM | EC50 [6]: 0.6 nM | EC50 [7]: 4.6 nM | EC50 [8]: 0.6 nM | EC50 [9]: > 100 nM | fold resistance / loss of potency against K103N/Y181C double mutant [9]: > 1000 fold | CC50 at 48 h [10]: 38000 nM | CC50 (HOS cells): > 38000 nM | Therapeutic Index (T.I.) (HOS cells): 3.8x10^5

Cc1cc(/C=C/C#N)cc(C)c1Nc1ncc2ncn(-c3ccc(C#N)cc3)c2n1 [Analogue 26]
EC50 [1]: 4.5 nM | EC50 [2]: 6.5 nM | EC50 [3]: 25 nM | EC50 [4]: 26 nM | EC50 [5]: 91 nM | EC50 [6]: 1.6 nM | EC50 [7]: 6.5 nM | EC50 [8]: 17 nM | EC50 [9]: > 100 nM | CC50 at 48 h [10]: 21000 nM | Therapeutic Index (T.I.) (HOS cells): 4.7x10^3

Cc1cc(/C=C/C#N)cc(C)c1-n1cnc2cnc(Nc3ccc(C#N)cc3)nc21 [Analogue 27]
EC50 [1]: 0.2 nM | EC50 [2]: 0.4 nM | EC50 [3]: 0.7 nM | EC50 [4]: 1.5 nM | EC50 [5]: 9.6 ± 2.2 nM | EC50 [6]: 0.2 nM | EC50 [7]: 0.2 nM | EC50 [8]: 0.4 nM | EC50 [9]: 72 nM | CC50 at 48 h [10]: 42000 nM | CC50 (HOS cells): > 38000 nM | Therapeutic Index (T.I.) (HOS cells): 2.1x10^5
